According to patent US20230348988A1, “DNA Damage Repair Deficit in Cancer Cells” (THE REGENTS OF THE UNIVERSITY OF CALIFORNIA, priority 2020, published 2023):

Assays:
Assay type in all cases: cell-based
SAS cells [1] = test: Pulsed-field gel electrophoresis of residual DSB after irradiation
Procedure: Next it was sought to test whether TGFβ inhibition would increase alt-EJ in the context of NHEJ inhibition. Here pulsed-field gel electrophoresis was used to measure residual DSB levels in SAS cells at various timepoints after irradiation (20 Gy). NHEJ was blocked by treating cells with the DNA-protein kinase inhibitor KU57788 1 hour before irradiation and TGFβ signaling was blocked 24 hours beforehand with LY36494 pretreatment.

U251 human GBM cell line = test: Quantitative expression assays of alt-EJ genes in U251 cells; settings: time course, TGFβ signaling blockade with LY2157299
Text: The above observations led to the hypothesis that TGFβ suppression of alt-EJ gene expression is a distinct mechanism that influences differential DNA repair pathway use. To test whether this biology is broadly employed beyond HNSC, glioblastoma (GBM) was considered because high TGFβ ligand and receptor expression correlate with poorer survival, and because TGFβ inhibition enhances radiosensitivity in GBM cell lines and primary tumor explants. First, the U251 human GBM cell line was investigated using the NANOSTRING™ panel. As observed in HNSC SAS cells, TGFβ inhibition increased expression of the key alt-EJ genes, LIG1, PARP1, and POLQ in GBM cells. […] U251 reporters (EJ2GFP) were established to evaluate alt-EJ repair.
(§1) Gene expression analyses methods: Total RNA was extracted. Sample RNA (250 ng) was used for the NANOSTRING™ DNA Damage Repair Gene Expression panel, consisting of 180 DDR genes and 12 housekeeping genes for normalization, according to manufacturer's instructions. Hybridization efficiency and background signals were evaluated based on internal positive and negative control probes analyzed using manufacturer's software. Ratio data from 2-3 biological repeats were used for further analysis and graphs.

SAS cells [2] = test: NANOSTRING DDR gene panel expression in SAS cells; settings: 24 h, TGFβ plus or minus inhibitor
Procedure: TGFβ regulates expression of DDR genes. To further investigate TGFβ impact on DDR, the expression of DNA repair-associated genes was evaluated using the NANOSTRING™ DDR gene panel. […] According to KEGG pathway analyses, expression of genes implicated in HR and NHEJ was increased by TGFβ and reduced by its inhibition. […] BRCA1 expression was increased by TGFβ and suppressed by LY2157299, as was ABL1 and POLD4. In contrast, TGFβ decreased and LY2157299 inhibition increased expression of LIG1, PARP1, and POLQ, which are key genes involved in alt-EJ.
as §1

## O=c1cc(N2CCOCC2)oc2c(-c3cccc4c3sc3ccccc34)cccc12 [KU57788]
SAS cells [1]; KU57788 1 hour before irradiation (20 Gy)
  repair of radiation induced DSB: significantly inhibited

## Cc1cccc(-c2nn3c(c2-c2ccnc4ccc(C(N)=O)cc24)CCC3)n1 [LY2157299]
U251 human GBM cell line
  expression of LIG1, PARP1, and POLQ: increased
SAS cells [2]
  BRCA1 expression (as was ABL1 and POLD4): suppressed
  TGFβ induction of CDKNJA: blocked
  expression of LIG1, PARP1, and POLQ: increased

## c1ccc(-c2[nH]ncc2-c2ccnc3ccccc23)nc1 [LY36494]
SAS cells [1]; LY36494 pretreatment 24 hours beforehand, with KU57788, 20 Gy
  rescue of KU57788-inhibited repair of radiation induced DSB: partially rescued
